We go through five molecules from patent US20230390312A1, “NOVEL THERAPEUTIC COMBINATIONS COMPRISING DERIVATIVES OF OXAZAPHOSPHORINES FOR THE TREATMENT OF CANCER” (INSTITUT GUSTAVE ROUSSY, priority 2019, published 2023).

“Also recorded” adds a separate entry of the source. Where two headings read alike, the source gives them in different places.

Series [1] concerns IFNγ, IL-17A and IL-6 secretion. Nature of the series: TCR-driven cytokine release by splenocytes of treated MCA205 tumor-bearing mice. It counts as in vivo, mouse. As for the experimental part: (§1) Female C57BL/6 mice of 7 to 8 weeks were randomly assigned to the different treatment groups. […] Both drugs were dissolved in a solution of NaCl 0.9%. […] The administrations were performed by a single i.p. injection with a volume of 20 mL/kg or 10 mL/kg when adding G-IFO groups. Seven days post treatment, the mice were sacrificed, spleens and tumors were collected. After lysis of red blood cells with ammonium chloride splenic viable cells were quantified with Trypan Blue with Vi-CELL XR (Beckman Coulter).
(§2) From spleen cell suspension, a total of 2·10^5 cells per well were incubated in 96 well Nunc MaxiSorp® plates (eBioscience) precoated with anti-CD3ε mAbs (clone 145-2C11, 10 μg/mL); eBioscience) and/or anti-CD28 mAbs (clone 37.57, 2 μg/mL; BD Pharmingen). The supernatants were assayed after 48 hours of incubation at 37° C. under 5% CO2 using Cytokine concentrations were quantified in the supernatant using a Bio-Plex™ Mouse Cytokine Standard 23-Plex, Group I Assay (bio rad, M60009RDPD). The panel was comprised of the following cytokines and chemokines: eotaxin, Granulocyte-Colony Stimulating Factor (G-CSF), Granulocyte-Macrophage-Colony Stimulating Factor (GM-CSF), interferon gamma (IFNγ), interleukin (IL)-1α (IL-1α), IL-1β, IL-2, IL-3, IL-4, IL-5, IL-6, IL-9, IL-10, IL-12p40, IL-12p70, IL-13, IL-17A, Keratinocyte Chemoattractant (KC), Macrophage Chemotactic Protein-1 (MCP-1), Macrophage Inflammatory Protein (MIP)-1alpha (MIP-1α), MIP-1β, Regulated on Activation Normal T cell Expressed and Secreted (RANTES) and Tumor Necrosis Factor-alpha (TNF-α). Results were analyzed using Bio-Plex Manager Software V 6.1 (Bio-Rad Laboratories, Hercules, CA, USA). […] These three cytokines were then quantified using mouse IL-17A ELISA Ready-SET-Go® (eBiosciences), Mouse IFNy ELISA Set (BD Biosciences) and Mouse IL-6 ELISA Set (BD Biosciences).

Series [2] relates to MCA205 fibrosarcoma tumor. It counts as in vivo, mouse. Particulars: single i.p. The procedure: 7-8 weeks-old female C57BL/6 mice (mean body weight, 20 g) were purchased from Harlan Laboratories (Gannat, France). Animals were used in pathogen-free conditions. MCA205 fibrosarcoma tumor cell line (syngenic from C57Bl/6 mice) was kindly provided by Dr Yamazaki Takahiro (INSERM U1015, Gustave Roussy, Villejuif, France). They were harvested at 37° C. under 5% CO2 in Gibco™ RPMI 1640 medium (Paisley, UK) supplemented with 10% Fetal Bovine Serum (Paisley, UK) and 2 mM L-glutamine (Invitrogen, USA). All animal experiments were carried out in compliance with French and European laws and regulations and by the CEEA26 Ethic committee and the ministry of national education, higher education and research and carried out under conditions established by the European Community (Directive 2010/63/2015-038).
(§3) 8·10^5 tumor cells were inoculated subcutaneously (s.c.) in the right flank of C57Bl/6 mice on DO.
Regarding study for combination between chemotherapy (G-IFO) and anti-PD1 mAbs, mice received G-IFO or vehicle on D9 then 200 μg/mouse i.p. injections of anti-PD1 mAbs (clone RMP1-14) or its isotype control Rat IgG2a (clone 2A3) on D12, D15 and D19. Tumor volume was followed-up three times a week by measuring the length and width using a caliper. In order to normalize tumor measurements for each day VTDx to VTDi (VTDx/VTDi) ratio was calculated; VTDi corresponds to the tumor volume the day of treatment initiation and VTDx corresponds to the tumor volume on each measurement day for each mouse.

Series [3] deals with large panel of tumor cells. The note with it: in vitro; cited from earlier work.
The test system of series [4] is T cells. The format is in vivo, mouse. The note with it: for T cell counts: tumor-bearing mice. As for the experimental part: as §1
(§4) Briefly, tumor dissociation was done with GentleMACS™ Dissociator after adding ADNase (260913, Millipore) and […] (5401127001, Sigma) to weighed and cut tumors. Tumor cells were incubated for 40 min at 37° C. under stirring and then quantified with Trypan Blue with Vi-CELL XR (Beckman Coulter). Before staining, Fcγ-receptors were blocked for 15 min at 4° C. using anti-CD16/32 functional grade purified antibodies (eBioscience, Paris, France). Cells were incubated for 30 min at 4° C. with antibodies for cell surface staining. For FoxP3 staining, cells were fixed and permeabilized after cell surface staining according to the FoxP3 kit protocol (eBioscience, Paris, France). Samples were acquired on 10-colors Gallios cytometer (Beckman Coulter, Villepinte, France). Analyses were performed using Kaluza software 1.3 (Beckman Coulter). Two different panels were used to identify immune cells. First leucocytes were identified by the use of FITC-conjugated anti-mouse CD45. T and B lymphocytes were identified using APC-Cy7-conjugated anti-mouse CD3 and BV421-conjugated anti-mouse CD19 respectively. CD4^+ and CD8^+ T cells were separated using PE-Cy7-conjugated anti-mouse CD4 and APC-R700-conjugated anti-mouse CD8a staining among CD3 positive cells, respectively. Treg cells were stained using APC-conjugated anti-mouse FoxP3 staining among CD3^+CD4^+ T cells (Table 1).

The subject of series [5] is rhabdomyosarcoma. Particulars: murine model of rhabdomyosarcoma; cited from earlier work.
For series [6] the following is noted: mice, intravenous route; cited from earlier work.
In series [7] the test system is B cells. The format is in vivo, mouse. The note with it: for B cell depletion in the spleen: FIG. 4, IFO 150 mg/kg, CPA 100 mg/kg, G-IFO eq. 100 or 150 mg/kg, single i.p., 7 days. As for the experimental part: (§5) Female C57BL/6 mice of 7 to 8 weeks were randomly assigned to the different treatment groups. […] Both drugs were dissolved in a solution of NaCl 0.9%. […] Seven days post treatment, the mice were sacrificed, spleens and tumors were collected. After lysis of red blood cells with ammonium chloride splenic viable cells were quantified with Trypan Blue with Vi-CELL XR (Beckman Coulter).
as §4

In series [8] the test system is several cancerous cells. Particulars: cited from earlier work.
In series [9] the test system is IFNγ, IL-17A and IL-6 secretion. Briefly: TCR-driven cytokine release by splenocytes of treated naive mice. The format is in vivo, mouse. The note with it: CPA 100 mg/kg, IFO 100, 150 and 200 mg/kg, CD3ε+CD28 stimulation. The procedure: as §5, §2
Series [10] relates to osteosarcoma. The note with it: high dose, cumulative dose of 14 000 mg/m^2, cited from earlier work.
Series [11] deals with MCA205 fibrosarcoma tumor. Briefly: Antitumor activity of IFO in MCA205-bearing mice depleted in CD4+ and/or CD8+ T cells. The format is in vivo, mouse.
Source text: as §3

The test system of series [12] is advanced refractory soft tissue. Particulars: high dose, cumulative dose of 12 000 mg/m2; cited from earlier work.
[13] abbreviates: IFO 100 and 150 mg/kg, CD3ε and CD28 co-stimulation.

Consider `CC(C)=CCC/C(C)=C/COC1CCOP(=O)(NCCCl)N1CCCl` (stereo not drawn) [G-IFO, geranyloxy-Ifosfamide], for which, in series [1] (G-IFO eq. 100 mg/kg), the “IFNγ secretion (Th1 polarization)” value was “favored IFNγ secretion; also recorded: increase” and the IL-6 secretion result is “increase”. In addition, in [1] (G-IFO eq. 150 mg/kg), the IFNγ secretion entry was “poor secretion of IFNγ” and the IL-6 secretion result was “high levels of IL-6”. Besides, the IL-17 secretion result in series [1] (escalating doses of G-IFO) is on record as “No significant IL-17 secretion”. The tumor growth result in series [2] (G-IFO eq. 100 mg/kg) is listed as “able to delay tumor growth; also recorded: showed an antitumoral activity; also recorded: delayed tumor-growth”. Besides, the “tumor growth delay compared to CPA 100 mg/kg” value in series [2] (G-IFO eq. 100 mg/kg, FIG. 2D) was “lower tumor growth delay”. For the same molecule, the cytotoxicity entry in series [3] is listed as “cytotoxic”. In addition, the T cell depletion entry in series [4] (G-IFO eq. 150 mg/kg) is given as “induced T cell depletion”. In series [5], the tumor growth entry is on record as “prevent tumor growth”. Besides, in [6], the “conversion into 4-hydroxy-ifosfamide metabolite” value is given as “rapidly converted”. The “B cell depletion in the spleen” value in [7] is given as “Dose-dependent B cell depletion”. For the same molecule, the B cells population result in series [7] (G-IFO low dose eq. 100 mg/kg, i.p.) is listed as “very affected”.
With `CC(C)=CCC/C(C)=C/CC/C(C)=C/CC/C=C(\C)CC/C=C(\C)CCCOC1CCOP(=O)(NCCCl)N1CCCl` (stereo not drawn) [SQ-IFO], the cytotoxicity result in [8] was “display cytotoxicity”.
As for `CC(C)=CCC/C(C)=C/CC/C(C)=C/CC/C=C(\C)CC/C=C(\C)CCC(=O)NCCSC1CCOP(=O)(NCCCl)N1CCCl` (stereo not drawn) [SQ-thio-IFO], the cytotoxicity entry in series [8] was “display cytotoxicity”.
Turning to `O=P1(N(CCCl)CCCl)NCCCO1` (stereo not drawn) [CPA, Cyclophosphamide], in series [2] (CPA 100 mg/kg), the tumor growth entry is given as “Significant reduction of the tumor growth”. The “B cell depletion in the spleen” value in series [7] is given as “Dose-dependent B cell depletion”. Moreover, in series [9], the “TCR-driven IFNγ” value was “significantly increased”, the “TCR-driven IL-6” value is “significantly increased” and the “TCR-driven IL-17A” value is recorded as “significantly increased”.
Regarding `O=P1(NCCCl)OCCCN1CCCl` (stereo not drawn) [IFO, ifosfamide], the “TCR-driven IL-6 compared to CPA 100 mg/kg” value in series [1] (IFO 150 mg/kg) is “more”. Further, in [1] (IFO 150 mg/kg), the “TCR-driven IL-17 compared to CPA 100 mg/kg” value was “more”. The “TCR-driven IFNγ” value in [1] (setting [13]) is recorded as “significant secretion”; in series [1] (IFO 200 and 300 mg/kg), “failed to induce”; in [9], “significant increase”. The “TCR-driven IL-6” value was “significant secretion” in series [1] (setting [13]); “remained highly secreted” in series [1] (IFO 200 and 300 mg/kg); “significant increase” in series [9]. For the same molecule, the “TCR-driven IL-17A” value in series [1] (setting [13]) was “significant secretion”; in series [1] (IFO 200 and 300 mg/kg), “failed to induce”; in series [9], “significant increase”. Further, the tumor growth entry in [2] (IFO 100, 150, 200 and 300 mg/kg) is listed as “delay of tumor growth”; in series [11] (IFO 150 mg/kg single i.p., non-depleted mice), “Significant reduction of the tumor growth”. In addition, the T cell counts entry in [4] (IFO 100 and 150 mg/kg) is “no T cell counts decrease”; in [4] (IFO higher doses (200 and 300 mg/kg)), “T cell counts diminution”. In series [10] (children previously treated with conventional chemotherapy), the improved disease-free survival was 30 % of patients. For the same molecule, the “severe nephrotoxicity, share of patients” value in series [10] is “a quarter”. Also, the “B cell depletion in the spleen” value in [7] was “Dose-dependent B cell depletion”. In series [11] (IFO 150 mg/kg, CD4+ T cells and CD8+ T cells depleted mice), the antitumor effect result is reported as “decrease of the antitumor effect”. The antitumor efficacy result in series [11] (IFO 150 mg/kg, mice depleted with both CD4+ and CD8+ T cells) is “completely abolished”. Further, the efficacy entry in series [12] is recorded as “effective”. Besides, the toxicities result in series [12] is on record as “major toxicities”.
